Reference: ChEMBL document CHEMBL5214895, “3-Hydroxy-propanamidines, a New Class of Orally Active Antimalarials Targeting Plasmodium falciparum” (J Med Chem, 2021)
Activity calls are given as the source filed them. No cut-off for these calls is given here.

Columns and labels:
Plasmodium falciparum [1] = assay: Antiplasmodial activity against chloroquine-sensitive asexual blood stage Plasmodium falciparum 3D7 assessed as inhibition of parasite growth incubated for […] by HRP2-ELISA; assay type: functional, organism-based
Plasmodium falciparum [2] = assay: Antiplasmodial activity against multidrug resistant asexual blood stage Plasmodium falciparum Dd2 assessed as inhibition of parasite growth incubated for […] by HRP2-ELISA; assay type: functional, organism-based
[3] = Cytotoxicity against human HepG2 cells assessed as inhibition of cell growth incubated for 24 hrs by neutral red dye based analysis; assay type: toxicity
[4] = Selectivity index, ratio of IC50 for cytotoxicity against human HepG2 cells to IC50 for antiplasmodial activity against chloroquine-sensitive asexual blood stage Plasmodium falciparum 3D7; assay type: toxicity, cell-based; conditions: read-out: Ratio IC50
Plasmodium berghei [5] = assay: Antimalarial activity against Plasmodium berghei infected in mouse assessed as reduction in parasitemia in blood at 30 mg/kg, po administered for 4 times starting from 4 to 72 hrs and measured after 96 hrs post infection (reference value: 0%); assay type: functional; set-up: scale not given: the % may be the effect or the level left
Plasmodium berghei [6] = assay: Antimalarial activity against Plasmodium berghei infected in mouse assessed as mean survival days at 30 mg/kg, po administered for 4 times starting from 4 to 72 hrs and monitered for 30 days (reference value: 4 days); assay type: functional; conditions: time 30 day
[7] = Cytotoxicity against human HeLa cells assessed as inhibition of cell growth incubated for 24 hrs by neutral red dye based analysis; assay type: toxicity
[8] = Selectivity index, ratio of IC50 for cytotoxicity against human HeLa cells to IC50 for antiplasmodial activity against chloroquine-sensitive asexual blood stage Plasmodium falciparum 3D7; assay type: toxicity, cell-based; conditions: read-out: Ratio IC50
[9] = Cytotoxicity against HEK293 cells assessed as inhibition of cell growth incubated for 24 hrs by neutral red dye based analysis; assay type: toxicity; conditions: human
[10] = Selectivity index, ratio of IC50 for cytotoxicity against HEK293 cells to IC50 for antiplasmodial activity against chloroquine-sensitive asexual blood stage Plasmodium falciparum 3D7; assay type: toxicity, cell-based; conditions: human, read-out: Ratio IC50
Plasmodium berghei [11] = assay: Antimalarial activity against Plasmodium berghei infected in mouse assessed as reduction in parasitemia in blood at 50 mg/kg, po administered for 4 times starting from 4 to 72 hrs and measured after 96 hrs post infection (reference value: 0%); assay type: functional; set-up: scale not given: the % may be the effect or the level left
Plasmodium falciparum [12] = assay: Inhibition of hemozoin formation in sorbitol-synchronized early ring stage plasmodium falciparum NF54 trophozoites assessed as increase in free heme level at 1 to 2.5 times IC50 incubated for 28 hrs by flow cytometry analysis; assay type: functional
Plasmodium falciparum [13] = assay: Inhibition of hemozoin formation in sorbitol-synchronized early ring stage plasmodium falciparum NF54 trophozoites assessed as reduction in hemozoin level at 1 to 2.5 times IC50 incubated for 28 hrs by flow cytometry analysis; assay type: functional
Plasmodium falciparum [14] = assay: Antiplasmodial activity against multidrug resistant asexual blood stage Plasmodium falciparum Dd2-B2 assessed as inhibition of parasite growth incubated for 72 hrs by SYBR green-based assay; assay type: functional, organism-based; conditions: Dd2-B2, 72 h
Plasmodium falciparum [15] = assay: Antiplasmodial activity against hyper mutating Plasmodium falciparum Dd2 harboring proofreading-deficient DNA polymerase delta assessed as inhibition of parasite growth incubated for 72 hrs by SYBR green-based assay; assay type: functional, organism-based; conditions: Dd2, 72 h
Plasmodium berghei [16] = assay: Antimalarial activity against Plasmodium berghei infected in mouse assessed as reduction in parasitemia in blood at 10 mg/kg, po administered for 4 times starting from 4 to 72 hrs and measured after 96 hrs post infection (reference value: 0%); assay type: functional; set-up: scale not given: the % may be the effect or the level left
Plasmodium berghei [17] = assay: Antimalarial activity against Plasmodium berghei infected in mouse assessed as mean survival days at 50 mg/kg, po administered for 4 times starting from 4 to 72 hrs and monitered for 30 days (reference value: 4 days); assay type: functional; conditions: time 30 day

In the case of `N=C(CC(O)c1cc2ccccc2c2ccccc12)NCc1ccccc1` (centres undefined), the IC50 (Plasmodium falciparum [1]) is reported as 0.48 µM, the IC50 (Plasmodium falciparum [2]) is reported as 1.5 µM and the IC50 at 24 h [3] is reported as 13 µM. It also gave a selectivity ratio [4] of 27.
`N=C(CC(O)c1cc2ccccc2c2ccccc12)NCc1ccc(F)cc1` (centres undefined) showed an IC50 (Plasmodium falciparum [1]) of 0.98 µM, an IC50 (Plasmodium falciparum [2]) of 20 µM and an IC50 at 24 h [3] of 9.2 µM. The selectivity ratio [4] was 9.
Work on `CC(C)(C)c1ccc(C(O)C/C(N)=N/c2ccc(F)cc2)cc1` (centres undefined) yielded an IC50 (Plasmodium falciparum [1]) of 1.5 µM, an IC50 (Plasmodium falciparum [2]) of 0.94 µM and an IC50 at 24 h [3] of 57.5 µM. For the same compound, the selectivity ratio [4] was 38.
In the case of `CCCCN(CCCC)CC(O)c1cc(Cl)cc2c1-c1ccc(Cl)cc1/C2=C/c1ccc(Cl)cc1` (centres undefined) [LUMEFANTRINE], the IC50 (Plasmodium falciparum [1]) is reported as 0.006 µM, the IC50 (Plasmodium falciparum [2]) is reported as 0.002 µM and the IC50 at 24 h [3] is reported as > 20 µM. The selectivity ratio [4] was 20, the Activity (Plasmodium berghei [5]) was 99.8% and the MSD (Plasmodium berghei [6]) was >30 days.
Work on `CC(C)(C)c1cc(C(O)C/C(N)=N/c2ccc(F)cc2)cc(C(C)(C)C)c1` (centres undefined) yielded an IC50 (Plasmodium falciparum [1]) of 0.33 µM and an IC50 (Plasmodium falciparum [2]) of 0.35 µM.
In the case of `N/C(CC(O)c1ccnc2ccccc12)=N\c1ccc(F)cc1` (centres undefined), the IC50 (Plasmodium falciparum [1]) is reported as 3.4 µM, the IC50 (Plasmodium falciparum [2]) is reported as 5.6 µM and the IC50 at 24 h [3] is reported as > 200 µM. For the same compound, the selectivity ratio [4] was > 200.
Work on `C[C@H]1[C@H](OC(=O)CCC(=O)O)O[C@@H]2O[C@@]3(C)CC[C@H]4[C@H](C)CC[C@@H]1[C@@]24OO3` [ARTESUNATE] yielded an Activity (Plasmodium berghei [5]) of 99% and an MSD (Plasmodium berghei [6]) of 9 days.
Work on `COc1ccc(/N=C(\N)CC(O)c2ccc(C(C)(C)C)cc2)cc1` (centres undefined) yielded an IC50 (Plasmodium falciparum [1]) of 3.4 µM, an IC50 (Plasmodium falciparum [2]) of 2.4 µM and an IC50 at 24 h [3] of 56.2 µM. For the same compound, the selectivity ratio [4] was 17.
Work on `N=C(CC(O)c1cc2c(Cl)cc(Cl)cc2c2cc(C(F)(F)F)ccc12)NCCc1ccc(F)cc1` (centres undefined) yielded an IC50 (Plasmodium falciparum [1]) of 0.35 µM, an IC50 (Plasmodium falciparum [2]) of 0.23 µM and an IC50 at 24 h [3] of 7.3 µM. The selectivity ratio [4] was 21.
For `N/C(CC(O)c1cc2c(Cl)cc(Cl)cc2c2cc(C(F)(F)F)ccc12)=N\OCc1ccc(F)cc1` (centres undefined), the IC50 at 24 h [3] was 34.1 µM and the selectivity ratio [4] was 122.
With `Cl.N/C(CC(O)c1c2ccccc2cc2ccccc12)=N\c1ccc(F)cc1` (centres undefined) the IC50 (Plasmodium falciparum [1]) was 0.005 µM, the IC50 (Plasmodium falciparum [2]) was 0.009 µM and the IC50 at 24 h [3] was 7.5 µM. It also gave a selectivity ratio [4] of 1500, an IC50 at 24 h [7] of 127 µM and a selectivity ratio [8] of 25400. The IC50 at 24 h [9] was 78.3 µM, the selectivity ratio [10] was 15700 and the Activity (Plasmodium berghei [11]) was 40%.
`N=C(CC(O)c1cc2ccccc2c2ccccc12)NCCc1ccc(F)cc1` (centres undefined) gave an IC50 (Plasmodium falciparum [1]) of 0.33 µM, an IC50 (Plasmodium falciparum [2]) of 1.1 µM and an IC50 at 24 h [3] of 5 µM. The selectivity ratio [4] was 16.
`N/C(CC(O)c1cc2ccccc2c2ccccc12)=N\c1ccc(F)cc1` (centres undefined) showed an IC50 (Plasmodium falciparum [1]) of 0.027 µM, an IC50 (Plasmodium falciparum [2]) of 0.04 µM and an IC50 at 24 h [3] of 9.3 µM. The selectivity ratio [4] was 344.
`N/C(CC(O)c1cc2c(F)cc(F)cc2c2cc(C(F)(F)F)ccc12)=N\CCc1ccc(F)cc1` (centres undefined) gave an IC50 (Plasmodium falciparum [1]) of 0.24 µM and an IC50 (Plasmodium falciparum [2]) of 0.12 µM.
Work on `COc1ccc2nccc(C(O)C/C(N)=N/c3ccc(F)cc3)c2c1` (centres undefined) yielded an IC50 (Plasmodium falciparum [1]) of 2.1 µM, an IC50 (Plasmodium falciparum [2]) of 5.1 µM and an IC50 at 24 h [3] of 180 µM. It also gave a selectivity ratio [4] of 86.
Work on `CCN(CC)Cc1cc(/N=C(\N)CC(O)c2cc3ccccc3c3ccccc23)ccc1O` (centres undefined) yielded an IC50 (Plasmodium falciparum [1]) of 0.05 µM, an IC50 (Plasmodium falciparum [2]) of 0.64 µM and an IC50 at 24 h [3] of 15.2 µM. For the same compound, the selectivity ratio [4] was 304.
For `CCN(CC)CCCC(C)Nc1ccnc2cc(Cl)ccc12` (centres undefined) [CHLOROQUINE], the IC50 at 24 h [7] was > 1000 µM, the IC50 at 24 h [9] was > 1000 µM and the inhibition (Plasmodium falciparum [12]) was “Active”. For the same compound, the inhibition (Plasmodium falciparum [13]) was “Active”, the Activity (Plasmodium berghei [5]) was 99.9% and the MSD (Plasmodium berghei [6]) was 21 days.
With `N/C(CC(O)c1cc2ccccc2c2ccccc12)=N\CCc1ccccn1` (centres undefined) the IC50 (Plasmodium falciparum [1]) was 15 µM, the IC50 (Plasmodium falciparum [2]) was 22.8 µM and the IC50 at 24 h [3] was 50.5 µM. For the same compound, the selectivity ratio [4] was 3.
With `N=C(CC(O)c1cc2ccccc2c2ccccc12)NCCc1ccccc1` (centres undefined) the IC50 (Plasmodium falciparum [1]) was 0.72 µM, the IC50 (Plasmodium falciparum [2]) was 10 µM and the IC50 at 24 h [3] was 5.7 µM. The selectivity ratio [4] was 8.
With `N/C(CC(O)c1cc2c(F)cc(F)cc2c2cc(C(F)(F)F)ccc12)=N\N=C\c1ccc(F)cc1` (centres undefined) the IC50 (Plasmodium falciparum [14]) was 0.0244 µM, the IC50 (Plasmodium falciparum [15]) was 0.0268 µM and the Activity (Plasmodium berghei [5]) was 99.4%. The Activity (Plasmodium berghei [11]) was 99.9%, the Activity (Plasmodium berghei [16]) was 99.5% and the MSD (Plasmodium berghei [6]) was 25 days. It also gave an MSD (Plasmodium berghei [17]) of 22 days.
For `COc1ccc(CC/N=C(\N)CC(O)c2cc3ccccc3c3ccccc23)cc1` (centres undefined), the IC50 (Plasmodium falciparum [1]) was 0.07 µM, the IC50 (Plasmodium falciparum [2]) was 0.7 µM and the IC50 at 24 h [3] was 9 µM. The selectivity ratio [4] was 129.
`CC(C)(C)c1ccc(/N=C(\N)CC(O)c2ccc(C(C)(C)C)cc2)cc1` (centres undefined) showed an IC50 (Plasmodium falciparum [1]) of 0.05 µM, an IC50 (Plasmodium falciparum [2]) of 0.05 µM and an IC50 at 24 h [3] of 11.8 µM. For the same compound, the selectivity ratio [4] was 236.
In the case of `N/C(CC(O)c1cc2c(Cl)cc(Cl)cc2c2cc(C(F)(F)F)ccc12)=N\N1CCCCC1` (centres undefined), the IC50 at 24 h [3] is reported as 8.3 µM and the selectivity ratio [4] is reported as 1190.
